We go through 25 compounds from patent publication US11897851B2, “Heterocyclic GLP-1 agonists” (Gasherbrum Bio, Inc., priority 2021, dated 2024).

T1 sequence (P43220 24-463, species assumed): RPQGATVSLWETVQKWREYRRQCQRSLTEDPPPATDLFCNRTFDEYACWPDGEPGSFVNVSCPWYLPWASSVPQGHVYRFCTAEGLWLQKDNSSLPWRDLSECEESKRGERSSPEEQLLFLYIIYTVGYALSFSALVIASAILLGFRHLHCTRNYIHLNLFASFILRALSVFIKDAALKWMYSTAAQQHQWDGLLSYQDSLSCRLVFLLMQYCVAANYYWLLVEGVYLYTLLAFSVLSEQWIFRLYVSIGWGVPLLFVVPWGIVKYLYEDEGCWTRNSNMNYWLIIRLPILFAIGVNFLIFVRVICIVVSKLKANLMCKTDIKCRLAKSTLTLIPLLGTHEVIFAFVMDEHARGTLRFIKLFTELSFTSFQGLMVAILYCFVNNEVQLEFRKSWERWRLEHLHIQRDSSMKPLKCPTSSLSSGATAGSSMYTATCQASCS

The assay has as its target T1, GLP-1 Receptor (Homo sapiens, UniProt P43220).
T1 construct: host or cells: HEK293/GLP1R/CRE-LUC (HEK293/CRE-Luc stably expressing the GLP-1 receptor)
Nature of the assay: GLP-1R agonist cAMP stimulation assay (HEK293/GLP1R/CRE-LUC cells, Cisbio cAMP dynamic 2 kit).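 Also: compounds tested in half-log serial dilution, cAMP detected with cAMP-d2 and anti-cAMP cryptate antibody reagents after 1 h at room temperature.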 It counts as cell-based. To be noted: HEK293/CRE-Luc cell line stably expressing the GLP-1 Receptor; 1000 cells/well; 30 min at 37° C.; 0.5 mM IBMX, 0.1% BSA; read-out: GLP1R cAMP Stimulation DR: EC50.
For `Cc1ncoc1Cn1c(CCC(=O)O)cnc1CN1CCC(c2cccc3c2OC(C)(c2ccc(Cl)cc2F)O3)CC1` (stereo not shown) [Compound 241, 3-(2-((4-(2-(4-chloro-2-fluorophenyl)-2-methylbenzo[d][1,3]dioxol-4-yl)piperidin-1-yl)methyl)-1-((4-methyloxazol-5-yl)methyl)-1H-imidazol-5-yl)propanoic acid], the EC50 turned out to be 0.21 nM.

Turning to `CC1(c2ccc(Cl)cc2F)Oc2cccc(C3CCN(Cc4ncc(CCC(=O)O)n4Cc4ccccc4)CC3)c2O1` (stereo not shown) [Compound 242, 3-(1-benzyl-2-((4-(2-(4-chloro-2-fluorophenyl)-2-methylbenzo[d][1,3]dioxol-4-yl)piperidin-1-yl)methyl)-1H-imidazol-5-yl)propanoic acid], the EC50 worked out at 0.63 nM.

Turning to `COc1cccc(Cn2c(CCC(=O)O)cnc2CN2CCC(c3cccc4c3OC(C)(c3ccc(Cl)cc3F)O4)CC2)c1` (stereo not shown) [Compound 243, 3-(2-((4-(2-(4-chloro-2-fluorophenyl)-2-methylbenzo[d][1,3]dioxol-4-yl)piperidin-1-yl)methyl)-1-(3-methoxybenzyl)-1H-imidazol-5-yl)propanoic acid], the EC50 came to 0.87 nM.

Regarding `CCn1cncc1Cn1c(CCC(=O)O)cnc1CN1CCC(c2cccc(OCc3ccc(Cl)cc3F)n2)CC1` [Compound 244, 3-(2-((4-(6-((4-chloro-2-fluorobenzyl)oxy)pyridin-2-yl)piperidin-1-yl)methyl)-1-((1-ethyl-1H-imidazol-5-yl)methyl)-1H-imidazol-5-yl)propanoic acid], the EC50 was found to be 0.023 nM.

For the compound `CCn1cncc1Cn1c(CCC(=O)O)cnc1CN1CCC(c2cccc3c2OC[C@@H](c2ccc(Cl)cc2)O3)CC1` [Compound 245, (R)-3-(2-((4-(2-(4-chlorophenyl)-2,3-dihydrobenzo [b][1,4]dioxin-5-yl)piperidin-1-yl)methyl)-1-((1-ethyl-1H-imidazol-5-yl)methyl)-1H-imidazol-5-yl)propanoic acid], the EC50 was 0.15 nM.

As to `CCn1cncc1Cn1c(CCC(=O)O)nnc1CN1CCC(c2cccc3c2OC[C@@H](c2ccc(Cl)cc2)O3)CC1` [Compound 246, (R)-3-(5-((4-(2-(4-chlorophenyl)-2,3-dihydrobenzo [b][1,4]dioxin-5-yl)piperidin-1-yl)methyl)-4-((1-ethyl-1H-imidazol-5-yl)methyl)-4H-1,2,4-triazol-3-yl)propanoic acid], the EC50 is 0.38 nM.

Consider `Cn1c(C2CCC(C(=O)O)C2)cnc1CN1CCC(c2cccc3c2OC(C)(c2ccc(Cl)cc2F)O3)CC1` (stereo not shown) [Compound 247, 3-(2-((4-(2-(4-chloro-2-fluorophenyl)-2-methylbenzo[d][1,3]dioxol-4-yl)piperidin-1-yl)methyl)-1-methyl-1H-imidazol-5-yl)cyclopentane-1-carboxylic acid], for which the EC50 was determined as 310 nM.

Regarding `O=C(O)C1CC1c1cnc(CN2CCC(c3cccc4c3OC[C@@H](c3ccc(Cl)cc3)O4)CC2)n1C[C@@H]1CCO1` (stereo partly drawn) [Compound 248, 2-(2-((4-((R)-2-(4-chlorophenyl)-2,3-dihydrobenzo[b][1,4]dioxin-5-yl)piperidin-1-yl)methyl)-1-(((S)-oxetan-2-yl)methyl)-1H-imidazol-5-yl)cyclopropane-1-carboxylic acid], the EC50 amounted to 35 nM.

In the case of `O=c1[nH]c(-c2cnc(CN3CCC(c4cccc(OCc5ccc(Cl)cc5F)n4)CC3)n2C[C@@H]2CCO2)no1` [Compound 249a, (S)-3-(2-((4-(6-((4-chloro-2-fluorobenzyl)oxy)pyridin-2-yl)piperidin-1-yl)methyl)-1-(oxetan-2-ylmethyl)-1H-imidazol-5-yl)-1,2,4-oxadiazol-5(4H)-one], the EC50 came to 3.7 nM.

Regarding `Cn1c(-c2cc(=O)[nH]o2)cnc1CN1CCC(c2cccc(OCc3ccc(Cl)cc3F)n2)CC1` [Compound 250, 5-(2-((4-(6-((4-chloro-2-fluorobenzyl)oxy)pyridin-2-yl)piperidin-1-yl)methyl)-1-methyl-1H-imidazol-5-yl)isoxazol-3(2H)-one], the EC50 came to 1.6 nM.

Regarding `COCCn1c(Cc2noc(=O)[nH]2)cnc1CN1CCC(c2cccc3c2OC(C)(c2ccc(Cl)cc2F)O3)CC1` (stereo not shown) [Compound 251, 3-((2-((4-(2-(4-chloro-2-fluorophenyl)-2-methylbenzo[d][1,3]dioxol-4-yl)piperidin-1-yl)methyl)-1-(2-methoxyethyl)-1H-imidazol-5-yl)methyl)-1,2,4-oxadiazol-5(4H)-one], the EC50 turned out to be 13 nM.

`Cc1cc(-c2noc(=O)[nH]2)cnc1CN1CCC(c2cccc3c2OC(C)(c2ccc(Cl)cc2F)O3)CC1` (stereo not shown) [Compound 252, 3-(6-((4-(2-(4-chloro-2-fluorophenyl)-2-methylbenzo[d][1,3]dioxol-4-yl)piperidin-1-yl)methyl)-5-methylpyridin-3-yl)-1,2,4-oxadiazol-5(4H)-one]: the EC50 came to 11 nM.

`Cc1cc(-c2nnn[nH]2)cnc1CN1CCC(c2cccc3c2OC(C)(c2ccc(Cl)cc2F)O3)CC1` (stereo not shown) [Compound 253, 2-({4-[2-(4-chloro-2-fluorophenyl)-2-methyl-2H-1,3-benzodioxol-4-yl]piperidin-1-yl}methyl)-3-methyl-5-(1H-1,2,3,4-tetrazol-5-yl)pyridine]: the EC50 was found to be 4 nM.

`Cc1cc(-c2n[nH]c(=O)o2)cnc1CN1CCC(c2cccc3c2OC(C)(c2ccc(Cl)cc2F)O3)CC1` (stereo not shown) [Compound 254, 5-[6-({4-[2-(4-chloro-2-fluorophenyl)-2-methyl-2H-1,3-benzodioxol-4-yl]piperidin-1-yl}methyl)-5-methylpyridin-3-yl]-2,3-dihydro-1,3,4-oxadiazol-2-one]: the EC50 turned out to be 10 nM.

As for `Cc1cc(-c2nnc(C(F)(F)F)[nH]2)cnc1CN1CCC(c2cccc3c2OC(C)(c2ccc(Cl)cc2F)O3)CC1` (stereo not shown) [Compound 255, 2-({4-[2-(4-chloro-2-fluorophenyl)-2-methyl-2H-1,3-benzodioxol-4-yl]piperidin-1-yl}methyl)-3-methyl-5-[5-(trifluoromethyl)-4H-1,2,4-triazol-3-yl]pyridine], the EC50 turned out to be 8.3 nM.

Regarding `COCCc1cc(-c2nnn[nH]2)cnc1CN1CCC(c2cccc3c2OC(C)(c2ccc(Cl)cc2F)O3)CC1` (stereo not shown) [Compound 256, 2-({4-[2-(4-chloro-2-fluorophenyl)-2-methyl-2H-1,3-benzodioxol-4-yl]piperidin-1-yl}methyl)-3-(2-methoxyethyl)-5-(1H-1,2,3,4-tetrazol-5-yl)pyridine], the EC50 came out at 5 nM.

As for `Cc1cc(-c2nnc(C(F)F)[nH]2)cnc1CN1CCC(c2cccc3c2OC(C)(c2ccc(Cl)cc2F)O3)CC1` (stereo not shown) [Compound 257, 2-({4-[2-(4-chloro-2-fluorophenyl)-2-methyl-2H-1,3-benzodioxol-4-yl]piperidin-1-yl}methyl)-5-[5-(difluoromethyl)-4H-1,2,4-triazol-3-yl]-3-methylpyridine], the EC50 worked out at 14 nM.

Take `C[C@]1(c2ccc(Cl)cc2F)Oc2cccc(C3CCN(Cc4ncc(-c5nnc(C(F)(F)F)[nH]5)cc4CC4(C#N)CC4)CC3)c2O1` [Compound 258, 1-{[2-({4-[(2S)-2-(4-chloro-2-fluorophenyl)-2-methyl-2H-1,3-benzodioxol-4-yl]piperidin-1-yl}methyl)-5-[5-(trifluoromethyl)-4H-1,2,4-triazol-3-yl]pyridin-3-yl]methyl}cyclopropane-1-carbonitrile]: the EC50 was 0.0061 nM.

`COCCc1cc(-c2nnc(C(F)(F)F)[nH]2)cnc1CN1CCC(c2cccc3c2O[C@@](C)(c2ccc(Cl)cc2F)O3)CC1` [Compound 259, 2-({4-[(2S)-2-(4-chloro-2-fluorophenyl)-2-methyl-2H-1,3-benzodioxol-4-yl]piperidin-1-yl}methyl)-3-(2-methoxyethyl)-5-[5-(trifluoromethyl)-4H-1,2,4-triazol-3-yl]pyridine]: the EC50 was found to be 0.53 nM.

Regarding `COCCc1cc(-c2nnc(C(F)(F)F)[nH]2)cnc1CN1CCC(c2cccc3c2O[C@@](C)(c2ccc(C#N)cc2F)O3)CC1` [Compound 260, 3-fluoro-4-[(2S)-4-(1-{[3-(2-methoxyethyl)-5-[5-(trifluoromethyl)-4H-1,2,4-triazol-3-yl]pyridin-2-yl]methyl}piperidin-4-yl)-2-methyl-2H-1,3-benzodioxol-2-yl]benzonitrile], the EC50 is 2.3 nM.

Take `COCCc1cc(-c2nnc(C(F)(F)F)[nH]2)cnc1CN1CCC(c2cccc3c2OC(C)(c2ccc(Cl)cc2)O3)CC1` (stereo not shown) [Compound 261, 2-({4-[2-(4-chlorophenyl)-2-methyl-2H-1,3-benzodioxol-4-yl]piperidin-1-yl}methyl)-3-(2-methoxyethyl)-5-[5-(trifluoromethyl)-4H-1,2,4-triazol-3-yl]pyridine]: the EC50 is 5.3 nM.

For the compound `Cc1cc(-c2nnc(C(F)(F)F)[nH]2)cnc1CN1CCC(c2cccc3c2OC(C)(c2ccc(F)cc2F)O3)CC1` (stereo not shown) [Compound 262, 2-({4-[2-(2,4-difluorophenyl)-2-methyl-2H-1,3-benzodioxol-4-yl]piperidin-1-yl}methyl)-3-methyl-5-[5-(trifluoromethyl)-4H-1,2,4-triazol-3-yl]pyridine], the EC50 was 3 nM.

In the case of `Cc1cc(-c2nnc(C(F)(F)F)[nH]2)cnc1CN1CCC(c2cccc3c2OC(C)(c2ccc(F)cc2)O3)CC1` (stereo not shown) [Compound 263, 2-({4-[2-(4-fluorophenyl)-2-methyl-2H-1,3-benzodioxol-4-yl]piperidin-1-yl}methyl)-3-methyl-5-[5-(trifluoromethyl)-4H-1,2,4-triazol-3-yl]pyridine], the EC50 came out at 6.8 nM.

As for `Cc1cc(-c2nnc(C(F)(F)F)[nH]2)cnc1CN1CCC(c2cccc3c2OC(C)(c2ccc(Cl)cn2)O3)CC1` (stereo not shown) [Compound 264, 2-({4-[2-(5-chloropyridin-2-yl)-2-methyl-2H-1,3-benzodioxol-4-yl]piperidin-1-yl}methyl)-3-methyl-5-[5-(trifluoromethyl)-4H-1,2,4-triazol-3-yl]pyridine], the EC50 worked out at 15 nM.

For the compound `Cc1cc(-c2nnc(C(F)(F)F)[nH]2)cnc1CN1CCC(c2cccc3c2OC(C)(c2ccc(Cl)cc2)O3)CC1` (stereo not shown) [Compound 265, 2-({4-[2-(4-chlorophenyl)-2-methyl-2H-1,3-benzodioxol-4-yl]piperidin-1-yl}methyl)-3-methyl-5-[5-(trifluoromethyl)-4H-1,2,4-triazol-3-yl]pyridine], the EC50 turned out to be 4.5 nM.

The EC50 is the concentration giving half of the maximal effect.
